In patent US10130633B2, “Compounds” (BAYER PHARMA AKTIENGESELLSCHAFT, priority 2013, dated 2018):

Experiments:
[1] = system: constitutive active colorectal cancer cell (CRC) Wnt pathway; experiment: HCT116 TOPFlash cellular reporter assay (Super TopFlash luciferase), constitutive active Wnt pathway; type: cell-based; conditions: HCT116 TOP reporter cells, 36 hours incubation, luciferase expression
Method: In order to discover and characterize small molecules which inhibit the constitutive active colorectal cancer cell (CRC) Wnt pathway, a cellular reporter assay was employed. […] Stable transfectants were generated by cotransfection with pcDNA3 and selection of stable transfected cells with 1 mg/ml G418.

[2] = system: HCT116 FOP control reporter cell line; experiment: HCT116 FOPFlash control reporter assay (FOP control vector, non-functional TCF elements); type: cell-based; conditions: HCT116 FOP control reporter cells, 36 hours incubation, luciferase expression
Text: In a parallel approach, HCT116 cells were cotransfected with the FOP control vector and pcDNA3. The FOP vector is identical to the TOP construct, but it contains instead of functional TCF elements a randomized, non-functional sequence. For this transfection a stable transfected cell line was generated as well.

Row | Structure (SMILES) | IC50 ([1]; Homo sapiens, HCT-116, 36 h) [nM] | IC50 [2] [µM] | IC50 ([2]; Homo sapiens, HCT-116, 36 h) [µM] | IC50 [1] [nM]
1 | O=C(CN1CCOCC1)Nc1cc(C(=O)Nc2nnc(-c3ccccc3F)s2)ccc1OC(F)(F)F [Example 127, N-[5-(2-fluorophenyl)-1,3,4-thiadiazol-2-yl]-3-[(morpholin-4-ylacetyl)amino]-4-(trifluoromethoxy)benzamide] | 885 |  | ≥ 50 | 
2 | CN1CCN(CC(=O)Nc2cc(C(=O)Nc3nnc(-c4ccccc4)s3)ccc2Cl)CC1 [Example 173, 4-chloro-3-{[(4-methylpiperazin-1-yl)acetyl]amino}-N-(5-phenyl-1,3,4-thiadiazol-2-yl)benzamide] | 520 |  | ≥ 50 | 
3 | CN1CCN(CC(=O)Nc2cc(C(=O)Nc3nnc(-c4ccccc4)s3)ccc2Br)CC1 [Example 94, 4-bromo-3-{[(4-methylpiperazin-1-yl)acetyl]amino}-N-(5-phenyl-1,3,4-thiadiazol-2-yl)benzamide] | 433 |  | ≥ 50 | 
4 | CC(C(=O)Nc1cc(C(=O)Nc2ccc(-c3cccc(F)c3)nc2)ccc1OC(F)(F)F)N1CCOCC1 (centres unmarked) [Example 183, N-[6-(3-fluorophenyl)pyridin-3-yl]-3-{[2-(morpholin-4-yl)propanoyl]amino}-4-(trifluoromethoxy)benzamide] |  | ≥ 50 |  | 29
5 | CC(C(=O)Nc1cc(C(=O)Nc2ncc(-c3ccccc3)s2)ccc1C(C)(C)C)N1CCOCC1 (centres unmarked) [Example 143, 4-tert-butyl-3-{[2-(morpholin-4-yl)propanoyl]amino}-N-(5-phenyl-1,3-thiazol-2-yl)benzamide] | 204 |  | ≥ 50 | 
6 | CC1CN(CC(=O)Nc2cc(C(=O)Nc3ccc(-c4ccccc4F)nc3)ccc2OC(F)(F)F)CCN1C (centres unmarked) [Example 137, 3-{[(3,4-dimethylpiperazin-1-yl)acetyl]amino}-N-[6-(2-fluorophenyl)pyridin-3-yl]-4-(trifluoromethoxy)benzamide] | 272 |  | 20 | 
7 | CN1CCN(CC(=O)Nc2cc(C(=O)Nc3nnc(-c4ccc(Cl)cc4)s3)ccc2OC(F)(F)F)CC1 [Example 147, N-[5-(4-chlorophenyl)-1,3,4-thiadiazol-2-yl]-3-{[(4-methylpiperazin-1-yl)acetyl]amino}-4-(trifluoromethoxy)benzamide] | 2200 |  | ≥ 50 | 
8 | CCN1CCN(CC(=O)Nc2cc(C(=O)Nc3nnc(-c4ccccc4)s3)ccc2OC(F)(F)F)CC1 [Example 172, 3-{[(4-ethylpiperazin-1-yl)acetyl]amino}-N-(5-phenyl-1,3,4-thiadiazol-2-yl)-4-(trifluoromethoxy)benzamide] | 855 |  | ≥ 50 | 
9 | CN(C)C1(C(=O)Nc2cc(C(=O)Nc3ccc(-c4ccccc4F)nc3)ccc2OC2CC2)CC1 [Example 140, 4-(cyclopropyloxy)-3-({[1-(dimethylamino)cyclopropyl]carbonyl}amino)-N-[6-(2-fluorophenyl)pyridin-3-yl]benzamide] | 293 |  | 10 | 
10 | O=C(CN1CCOCC1)Nc1cc(NC(=O)c2noc(-c3ccccc3)n2)ccc1OC(F)(F)F [Example 121, N-{3-[(morpholin-4-ylacetyl)amino]-4-(trifluoromethoxy)phenyl}-5-phenyl-1,2,4-oxadiazole-3-carboxamide] | 825 |  | ≥ 50 | 
11 | O=C(CN1CC2CCC(C1)O2)Nc1cc(C(=O)Nc2ccc(-c3cc(F)cc(F)c3)nc2)ccc1OC(F)(F)F [Example 73, N-[6-(3,5-difluorophenyl)pyridin-3-yl]-3-[(8-oxa-3-azabicyclo[3.2.1]oct-3-ylacetyl)amino]-4-(trifluoromethoxy)benzamide] | 98.5 |  | ≥ 50 | 
12 | O=C(CN1CCOCC1)Nc1cc(NC(=O)c2ccc(-c3c(F)cccc3F)nc2)ccc1OC(F)(F)F [Example 29, 6-(2,6-difluorophenyl)-N-{3-[(morpholin-4-ylacetyl)amino]-4-(trifluoromethoxy)phenyl}nicotinamide] | 156 |  | ≥ 50 | 

Next, values leading:

Row | IC50 ([1]; Homo sapiens, HCT-116, 36 h) [nM] | IC50 [2] [µM] | IC50 ([2]; Homo sapiens, HCT-116, 36 h) [µM] | IC50 [1] [nM] | Structure (SMILES)
13 | 138 | 10 |  |  | CC(C(=O)Nc1cc(NC(=O)c2ccc(-c3cccc(F)c3)nc2)ccc1OC(F)(F)F)N1CCOCC1 (centres unmarked) [Example 189, 6-(3-fluorophenyl)-N-[3-{[2-(morpholin-4-yl)propanoyl]amino}-4-(trifluoromethoxy)phenyl] nicotinamide]
14 | 245 |  | 10.2 |  | O=C(CN1CCN(C2CC2)CC1)Nc1cc(C(=O)Nc2ccc(-c3ccccc3F)nc2)ccc1C(F)(F)F [Example 227, 3-{[(4-cyclopropylpiperazin-1-yl)acetyl]amino}-N-[6-(2-fluorophenyl)pyridin-3-yl]-4-(trifluoromethyl)benzamide]
15 | 260 |  | 3.6 |  | O=C(CN1CC2CCC(C1)O2)Nc1cc(NC(=O)c2ccc(-c3cc(F)cc(F)c3)nc2)ccc1OC(F)(F)F [Example 216, 6-(3,5-difluorophenyl)-N-{3-[(8-oxa-3-azabicyclo[3.2.1]oct-3-ylacetyl)amino]-4-(trifluoromethoxy)phenyl} nicotinamide]
16 |  | ≥ 50 |  | 438 | CC(C(=O)Nc1cc(NC(=O)c2ccc(-c3cc(F)cc(F)c3)nc2)ccc1OC(F)(F)F)N1C[C@@H]2C[C@H]1CO2 (relative stereo) [Example 217, 6-(3,5-difluorophenyl)-N-[3-({(2S*)-2-[(1S,4S)-2-oxa-5-azabicyclo[2.2.1]hept-5-yl]propanoyl}amino)-4-(trifluoromethoxy)phenyl] nicotinamide]
17 | 17 |  | ≥ 50 |  | Cc1ccccc1-c1nnc(NC(=O)c2ccc(OC(F)(F)F)c(NC(=O)C3(N4CCOCC4)CC3)c2)s1 [Example 257, N-[5-(2-methylphenyl)-1,3,4-thiadiazol-2-yl]-3-({[1-(morpholin-4-yl)cyclopropyl]carbonyl}amino)-4-(trifluoromethoxy)benzamide]
18 | 2100 |  | ≥ 50 |  | CC(C(=O)Nc1cc(NC(=O)c2cnc(-c3ccccc3)s2)ccc1OC(F)(F)F)N1CCOCC1 (centres unmarked) [Example 255, N-[3-{[2-(morpholin-4-yl)propanoyl]amino}-4-(trifluoromethoxy)phenyl]-2-phenyl-1,3-thiazole-5-carboxamide]
19 | 255 |  | ≥ 50 |  | Cc1ccccc1-c1nnc(NC(=O)c2ccc(OC3CC3)c(NC(=O)CN3CCN(C)CC3)c2)s1 [Example 264, 4-(cyclopropyloxy)-N-[5-(2-methylphenyl)-1,3,4-thiadiazol-2-yl]-3-{[(4-methylpiperazin-1-yl)acetyl]amino}benzamide]
20 | 3020 |  | ≥ 50 |  | CC[C@H](C(=O)Nc1cc(C(=O)Nc2nnc(-c3ccccc3)s2)ccc1OC(F)(F)F)N1CCN(C)CC1 [Example 274, 3-{[(2R)-2-(4-methylpiperazin-1-yl)butanoyl]amino}-N-(5-phenyl-1,3,4-thiadiazol-2-yl)-4-(trifluoromethoxy)benzamide]
21 |  | ≥ 50 |  | 140 | CC(C(=O)Nc1cc(NC(=O)c2ccc(-c3ccccc3F)nc2)ccc1OC(F)(F)F)N1CCOCC1 (centres unmarked) [Example 213, 6-(2-fluorophenyl)-N-[3-{[2-(morpholin-4-yl)propanoyl]amino}-4-(trifluoromethoxy)phenyl] nicotinamide]
22 | 985 |  | ≥ 50 |  | O=C(CN1CCN(CC(F)(F)F)CC1)Nc1cc(C(=O)Nc2ccc(-c3ccccc3F)nc2)ccc1OC(F)(F)F [Example 233, N-[6-(2-fluorophenyl)pyridin-3-yl]-3-({[4-(2,2,2-trifluoroethyl)piperazin-1-yl]acetyl}amino)-4-(trifluoromethoxy)benzamide]
